Reference: patent US8404651B2, “Compositions and methods for treating viral infections” (priority 2008, dated 2013)
Where “and” joins values, the source holds several entries; their conditions need not be identical. Equal values may be shown once. Read-outs that look alike come from different tables or passages of the source.

Legend:
[1] = test system: HCV replicon cell line, AVA5; test: Cytotoxicity by neutral red dye uptake in replicon cultures in parallel plates; settings: read-out: Control 2 (μM) CC50; genotype 1B
Procedure: (§1) Primary anti-HCV assay-Antiviral activity against HCV was assessed in a 3-day assay (Okuse, et al., 2005; Antiviral. Res. 65:23; Korba, et al., 2008, Antiviral Res. 77:56) using the stably-expressing HCV replicon cell line, AVA5 [sub-genomic (CON1), genotype 1b](Blight, et al., 2000, Science 290:1972) maintained as sub-confluent cultures on 96-well plates. Antiviral activity was determined by blot hybridization analysis of intracellular HCV RNA (normalized to the level of cellular B-actin RNA in each culture sample). Cytotoxicity was assessed by neutral red dye uptake in cultures maintained in parallel plates.
(§2) EC50, EC90, and CC50 values were calculated by linear regression analysis (MS EXCEL®, QUATTROPRO®) using data combined from all treated cultures Korba & Gerin, 1992, Antivir. Res. 19:55; Okuse, et al., 2005, Antivir. Res. 65:23). Standard deviations for EC50 and EC90 values were calculated from the standard errors generated by the regression analyses. […] The Selectivity index (S.I.) was calculated as CC50/EC50. Recombinant human interferon 2b (PBL laboratories, Inc.) was used as an assay control.
(§3) For each combination of agents, three concentration ratios, centered on the use of the compounds at equipotent antiviral concentrations, were used. A dilution series (six three-fold-concentration steps, beginning at the approximate EC90) was then generated with the concentration ratio of the two agents remaining the same in each dilution step. Toxicity analysis was performed as described above for the monotherapies. Analysis of drug interactions in the combination studies was determined by the use of the […] program (Biosoft, Inc., Cambridge, United Kingdom). This program evaluates synergy, additivity, or antagonism by use of several methodologies, including that of Chou and Talalay with a statistical analysis employing the Monte Carlo technique to provide confidence limits, fraction-affected-confidence interval (FA-CI) plots, isobolograms, and median-effect plots. (Belenkii, M. S. Schinazi, R. A method for the analysis of combination therapies with statistical analysis. Antiviral Res. 25, 11, 2005).

[2] = test system: HCV replicon cell line, AVA5 [sub-genomic (CON1), genotype 1b]; test: microbe, parasite or virus in culture; type: cell-based; settings: genotype 1B; for EC50: read-out: Control 2 (μM) EC50; for EC90: read-out: Control 2 (μM) EC90
Procedure: as §1, §2, §3

[3] = test system: replicon cell line containing H/FL-Neo (genotype 1a (H77), full length construct); test: Secondary anti-HCV assay: genotype 1a replicon, format of the primary assay; type: cell-based; settings: genotype 1a replicon
From the text: Res. 19:55; Okuse, et al., 2005, Antivir. Res. 65:23).
Secondary anti-HCV assay—This assay assesses activity against different HCV genotypes using the format described for the primary assay. Activity against the genotype 1b HCV is included for comparison. Currently available is a replicon cell line containing H/FL-Neo (genotype 1a (H77), full length construct) (Blight, et al., 2003, J. Virol. 77:3181).

TA1535 = test: In vitro bacterial mutagenicity assay (pre-incubation), strain TA1535; settings: positive control; for Number of revertants x1, x2, x3: individual plates; for Fold response: vs vehicle control
Procedure: (§4) Dispense 100 microliter aliquots of the appropriate bacterial cultures into sample tubes stored on ice. Dispense aliquots of the vehicle, positive controls or dose formulations into the appropriate sample tubes. 2 mL top Agar and HBT cap was added to the sample tube, inverted three times and poured into MG plate. The lid was replaced on the plate and left on a level surface to let the agar harden. The plates were incubated in an incubator for 48 to 72 h. The background lawn and count the number of revertants was checked for each plate.

WP2 uvrA = test: In vitro bacterial mutagenicity assay (pre-incubation), strain WP2 uvrA; settings: positive control, S9 +, 15 μg/plate
Procedure: as §4

TA98 = test: In vitro bacterial mutagenicity assay (pre-incubation), strain TA98; settings: positive control, TA98, S9 0, 1 μg/plate
Procedure: as §4

TA1537 = test: In vitro bacterial mutagenicity assay (pre-incubation), strain TA1537; settings: positive control, TA1537, S9 0, 10 μg/plate
Procedure: as §4

TA100 = test: In vitro bacterial mutagenicity assay (pre-incubation), strain TA100; settings: positive control, TA100, S9 0, 0.5 μg/plate
Procedure: as §4

[4] = Cytotoxicity by neutral red dye uptake in replicon cultures in parallel plates; settings: human, AVA5 HCV replicon cells (sub-genomic CON1, genotype 1b)
Procedure: as §1, §2, §3

C[C@@]1(O)[C@H](O)[C@@H](CO)O[C@H]1n1ccc(N)nc1=O [2′CmeCyt]
CC50 [1]: > 300 µM
EC50 [2]: 1.4 µM
EC90 [2]: 5.3 µM

COC1C(OP(=O)(OC[C@H]2O[C@@H](n3cnc4c(N)ncnc43)CC2O)SCOC(=O)C(C)(C)C)[C@@H](CO)O[C@H]1n1ccc(=O)[nH]c1=O (some centres unmarked) [Compound 1]
EC50 ([3]; 2-fold depression of intracellular HCV RNA, read-out: EC50 HCV Type 1A): 2900 nM
EC90 ([3]; 10-fold depression of intracellular HCV RNA, read-out: EC90 HCV type 1A): 8500 nM

Nc1ccc2cc3ccccc3cc2c1 [Compound 2AA, reference compound]
Number of revertants mean (TA1535; TA1535, S9 +, 5 μg/plate): 254
Number of revertants x1, x2, x3 (TA1535; TA1535, S9 +, 5 μg/plate): 263 and 242 and 257
Fold response (TA1535; TA1535, S9 +, 5 μg/plate): 11
Number of revertants mean (WP2 uvrA): 373
Number of revertants x1, x2, x3 (WP2 uvrA; individual plates): 476 and 357 and 285
Fold response (WP2 uvrA; vs vehicle control): 9.6

O=[N+]([O-])c1ccc2c(c1)Cc1ccccc1-2 [Compound 2NF, reference compound]
Number of revertants mean (TA98): 139
Number of revertants x1, x2, x3 (TA98; individual plates): 151 and 114 and 153
Fold response (TA98; vs vehicle control): 4.5

Nc1c2ccccc2nc2ccccc12 [Compound 9AC, reference compound]
Number of revertants mean (TA1537): 741
Number of revertants x1, x2, x3 (TA1537; individual plates): 728 and 910 and 585
Fold response (TA1537; vs vehicle control): 57

[N-]=[N+]=[N-].[Na+] [NaAz, reference compound]
Number of revertants mean (TA1535; TA1535, S9 0, 0.5 μg/plate): 321
Number of revertants x1, x2, x3 (TA1535; TA1535, S9 0, 0.5 μg/plate): 340 and 312 (2×)
Fold response (TA1535; TA1535, S9 0, 0.5 μg/plate): 12
Number of revertants mean (TA100): 560
Number of revertants x1, x2, x3 (TA100; individual plates): 568 and 569 and 543
Fold response (TA100; vs vehicle control): 5.0

CCC[C@H](NC(=O)[C@@H]1[C@H]2CCC[C@H]2CN1C(=O)[C@@H](NC(=O)[C@@H](NC(=O)c1cnccn1)C1CCCCC1)C(C)(C)C)C(=O)C(=O)NC1CC1 [VX-950]
CC50 at 3 day [4]: 88000 nM
EC50 ([2]; Hepatitis C virus, Ava5): 0.249 µM
EC90 ([2]; Hepatitis C virus, Ava5): 0.892 µM
